# According to ChEMBL document CHEMBL1143652, “Joys of molecules. 2. Endeavors in chemical biology and medicinal chemistry” (J Med Chem, 2005):
# Columns and labels:
# Bile acid receptor [1] = target: T1, Bile acid receptor (Homo sapiens, UniProt Q96RI1); assay: Effective concentration against farnesoid X receptor (FXR); range is 5-10 uM
# Bile acid receptor [2] = target: T1, Bile acid receptor; assay: Effective concentration towards farnesoid X receptor (FXR); Range is 5-10 uM
# [3] = target: T2, Integrin alpha-IIb/beta-3 (Homo sapiens, UniProt P05106+P08514); assay: Inhibitory concentration against integrin alpha-2b beta3; format: protein-complex assay
# T2 sequence (P05106 27-788 limits assumed): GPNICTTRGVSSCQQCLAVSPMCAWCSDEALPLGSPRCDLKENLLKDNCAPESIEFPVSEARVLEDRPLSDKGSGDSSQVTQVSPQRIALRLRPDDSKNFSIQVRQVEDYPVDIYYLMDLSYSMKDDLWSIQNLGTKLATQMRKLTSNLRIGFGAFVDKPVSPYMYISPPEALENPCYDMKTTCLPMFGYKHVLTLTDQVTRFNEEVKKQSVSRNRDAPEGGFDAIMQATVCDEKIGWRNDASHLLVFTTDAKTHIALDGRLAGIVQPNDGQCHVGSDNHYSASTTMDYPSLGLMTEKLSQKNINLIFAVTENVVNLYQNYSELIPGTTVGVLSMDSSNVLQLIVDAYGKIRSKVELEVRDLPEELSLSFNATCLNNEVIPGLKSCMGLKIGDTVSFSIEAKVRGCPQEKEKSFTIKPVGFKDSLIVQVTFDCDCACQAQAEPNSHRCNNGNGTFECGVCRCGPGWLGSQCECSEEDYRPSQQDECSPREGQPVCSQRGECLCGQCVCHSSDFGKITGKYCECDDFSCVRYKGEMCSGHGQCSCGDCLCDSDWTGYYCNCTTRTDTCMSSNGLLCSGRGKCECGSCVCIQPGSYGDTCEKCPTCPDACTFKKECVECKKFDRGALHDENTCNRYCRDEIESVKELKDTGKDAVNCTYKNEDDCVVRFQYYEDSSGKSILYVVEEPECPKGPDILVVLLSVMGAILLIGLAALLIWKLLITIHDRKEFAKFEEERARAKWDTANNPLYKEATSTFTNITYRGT
# T2 sequence (P08514 32-887 limits assumed): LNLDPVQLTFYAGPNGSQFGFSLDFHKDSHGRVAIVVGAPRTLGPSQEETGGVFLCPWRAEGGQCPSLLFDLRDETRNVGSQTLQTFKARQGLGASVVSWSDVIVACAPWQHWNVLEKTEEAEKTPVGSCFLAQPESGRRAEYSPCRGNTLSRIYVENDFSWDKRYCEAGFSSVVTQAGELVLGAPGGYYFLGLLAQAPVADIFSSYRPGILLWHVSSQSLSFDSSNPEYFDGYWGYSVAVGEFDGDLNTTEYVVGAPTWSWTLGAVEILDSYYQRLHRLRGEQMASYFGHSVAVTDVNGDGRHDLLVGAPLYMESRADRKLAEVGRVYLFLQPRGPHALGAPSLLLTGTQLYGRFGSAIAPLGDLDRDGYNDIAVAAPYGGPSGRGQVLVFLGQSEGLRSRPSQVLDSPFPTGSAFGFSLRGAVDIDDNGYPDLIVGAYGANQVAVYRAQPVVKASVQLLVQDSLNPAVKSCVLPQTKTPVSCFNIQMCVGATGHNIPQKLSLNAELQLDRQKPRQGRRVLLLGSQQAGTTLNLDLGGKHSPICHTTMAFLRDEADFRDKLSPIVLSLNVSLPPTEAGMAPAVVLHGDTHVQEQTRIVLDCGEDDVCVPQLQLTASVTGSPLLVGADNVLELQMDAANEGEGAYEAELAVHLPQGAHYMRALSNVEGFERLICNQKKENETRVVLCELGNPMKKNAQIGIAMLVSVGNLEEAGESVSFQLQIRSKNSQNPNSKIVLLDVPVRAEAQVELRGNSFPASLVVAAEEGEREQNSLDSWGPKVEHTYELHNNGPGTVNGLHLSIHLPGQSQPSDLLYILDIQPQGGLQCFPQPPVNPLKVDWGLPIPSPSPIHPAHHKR
# T2 sequence (P08514 891-1039 limits assumed): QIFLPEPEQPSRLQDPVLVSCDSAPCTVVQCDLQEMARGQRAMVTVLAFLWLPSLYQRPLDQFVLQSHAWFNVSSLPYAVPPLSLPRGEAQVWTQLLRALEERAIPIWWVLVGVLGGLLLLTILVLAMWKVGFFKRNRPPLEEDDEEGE
# [4] = target: T2, Integrin alpha-IIb/beta-3; assay: Inhibitory concentration against alpha IIb beta-3 receptor; format: protein-complex assay
# 1A9 [5] = assay: Inhibitory concentration against 1A9 human ovarian carcinoma cell line; Range is 10-15 nM; format: functional, cell-based
# A2780 [6] = assay: Inhibitory concentration against A2780/AD10 cell line; Range is 10-15 nM; format: functional, cell-based; conditions: Homo sapiens
# PC-3 [7] = assay: Inhibitory concentration against PC-3 human prostate carcinoma cell line; Range is 10-15 nM; format: functional, cell-based
# A549 [8] = assay: Inhibitory concentration against A549 human lung carcinoma cell line; Range is 10-15 nM; format: functional, cell-based
# MCF7 [9] = assay: Inhibitory concentration against MCF-7 human breast carcinoma cell line; Range is 10-15 nM; format: functional, cell-based
# 1A9/ptx-10 [10] = assay: Inhibitory concentration against 1A9/PTX10 cell line; Range is 10-15 nM; format: functional, cell-based; conditions: Homo sapiens
# [11] = target: T3, Peroxisome proliferator-activated receptor delta (Homo sapiens, UniProt Q03181); assay: Effective concentration against PPAR delta receptor
# T3 sequence (Q03181 whole entry): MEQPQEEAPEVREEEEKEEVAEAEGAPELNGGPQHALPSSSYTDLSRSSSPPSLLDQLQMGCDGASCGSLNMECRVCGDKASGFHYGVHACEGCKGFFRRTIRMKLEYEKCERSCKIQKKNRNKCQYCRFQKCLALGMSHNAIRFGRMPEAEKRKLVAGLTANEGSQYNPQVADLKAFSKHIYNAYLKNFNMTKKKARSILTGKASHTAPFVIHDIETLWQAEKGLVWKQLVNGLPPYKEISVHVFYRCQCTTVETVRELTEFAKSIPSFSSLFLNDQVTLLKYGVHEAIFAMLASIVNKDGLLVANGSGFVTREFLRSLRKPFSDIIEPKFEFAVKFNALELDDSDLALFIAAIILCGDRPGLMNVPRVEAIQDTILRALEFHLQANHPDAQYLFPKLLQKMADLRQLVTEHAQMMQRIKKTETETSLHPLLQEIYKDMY
# [12] = target: T3, Peroxisome proliferator-activated receptor delta; assay: Effective concentration towards PPAR delta
# P388 [13] = assay: Cytotoxicity against leukemia P-388 tumor cells; format: functional; conditions: Mus musculus, read-out: ED50 (the source's name)
# P388 [14] = assay: Cytotoxicity against P-388 cancer cell line; format: functional, Homo sapiens; conditions: Mus musculus, read-out: ED50 (the source's name)
# MCF7 [15] = assay: Inhibitory concentration against MCF-7 human breast carcinoma cell line; Range is 2-5 nM; format: functional, cell-based
# A549 [16] = assay: Inhibitory concentration against A549 human lung carcinoma cell line; Range is 2-5 nM; format: functional, cell-based
# A2780 [17] = assay: Inhibitory concentration against A2780/AD10 cell line; Range is 2-5 nM; format: functional, cell-based; conditions: Homo sapiens
# 1A9 [18] = assay: Inhibitory concentration against 1A9 human ovarian carcinoma cell line; Range is 2-5 nM; format: functional, cell-based
# 1A9/ptx-10 [19] = assay: Inhibitory concentration against 1A9/PTX10 cell line; Range is 2-5 nM; format: functional, cell-based; conditions: Homo sapiens
# PC-3 [20] = assay: Inhibitory concentration against PC-3 human prostate carcinoma cell line; Range is 2-5 nM; format: functional, cell-based
# T1 sequence (Q96RI1 whole entry): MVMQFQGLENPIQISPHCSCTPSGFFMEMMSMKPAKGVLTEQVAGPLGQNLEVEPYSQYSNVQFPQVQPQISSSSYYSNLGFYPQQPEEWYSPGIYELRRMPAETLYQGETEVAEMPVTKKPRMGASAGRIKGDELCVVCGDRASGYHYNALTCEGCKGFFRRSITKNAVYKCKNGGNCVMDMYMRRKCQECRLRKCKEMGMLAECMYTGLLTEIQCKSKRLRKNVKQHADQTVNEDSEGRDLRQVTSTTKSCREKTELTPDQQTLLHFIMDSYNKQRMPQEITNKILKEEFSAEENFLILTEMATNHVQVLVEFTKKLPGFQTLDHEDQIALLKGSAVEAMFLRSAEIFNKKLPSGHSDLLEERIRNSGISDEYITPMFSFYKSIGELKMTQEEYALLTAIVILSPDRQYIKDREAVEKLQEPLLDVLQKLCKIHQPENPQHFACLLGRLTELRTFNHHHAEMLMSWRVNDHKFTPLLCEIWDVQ
structure (smiles),measurement,setting,value
COc1c(CN(C(=O)C2CC2)c2ccccc2)ccc2c1OC(C)(C)C=C2,EC50,Bile acid receptor [1],10000 nM
same,EC50,Bile acid receptor [2],10000 nM
N=C(N)N1CCN(c2ccc(C(=O)NC[C@H](NS(=O)(=O)c3c(O)ccc4ccccc34)C(=O)O)cc2[N+](=O)[O-])CC1,IC50,[3],14 nM
same,IC50,[4],14 nM
CC(C)[C@@H]1NC(=O)[C@@H](NC(=O)[C@H](O)C(C)C)Cc2ccc3c(c2)[C@]24C5=C(N=C1O5)c1nc(Cl)c(o1)-c1c(Cl)[nH]c5cccc(c15)-c1cccc2c1N[C@@H]4O3,IC50,1A9 [5],15 nM
same,IC50,A2780 [6],15 nM
same,IC50,PC-3 [7],15 nM
same,IC50,A549 [8],15 nM
same,IC50,MCF7 [9],15 nM
same,IC50,1A9/ptx-10 [10],15 nM
CC(C)N(Cc1cccc2c1OC(C)(C)C=C2)C(=O)c1ccc(-c2ccccc2)cc1,EC50,[11],1 nM
same,EC50,[12],1000 nM
CC(C)=CC[C@@H]1C(=O)C2=C(OC(C)(C)C=C2)C(=O)[C@@]12OC(=O)C1=C[C@]3(O)C[C@H]4C(C)(C)OC(CC=C(C)C)(C3=O)[C@]14O2 [LATERIFLORONE],EC50,P388 [13],5.4 µg/mL
same,EC50,P388 [14],5.4 µg/mL
[H][C@]12Nc3c4cccc3[C@]13C1=C(N=C(O1)[C@H](C(C)C)NC(=O)[C@@H](NC(=O)[C@@H](O)C(C)C)Cc1ccc(c3c1)O2)c1nc(Cl)c(o1)-c1c(Cl)[nH]c2cccc-4c12 [DIAZONAMIDE A],IC50,MCF7 [15],5 nM
same,IC50,A549 [16],5 nM
same,IC50,A2780 [17],5 nM
same,IC50,1A9 [18],5 nM
same,IC50,1A9/ptx-10 [19],5 nM
same,IC50,PC-3 [20],5 nM
